Measurements as given in patent US10040838B2, “CRHR2 peptide agonists and uses thereof” (JANSSEN PHARMACEUTICA NV, priority 2008, dated 2018).
Values joined by “and” are separate entries in the source; they are usually repeats but may differ in a detail not shown here. Equal values may be shown once. No end group written: not given here.

Columns and labels:
human CRHR2 [1] = target: T1, human CRHR2 (Homo sapiens, UniProt Q13324); assay: Radioligand binding, membranes of SK-N-MC cells transfected with human CRHR2, [125I]-anti-sauvagine-30; details: for CRHR2 nH: Table 15, slope of competition curve
T1 construct: expressed in transfected cells
T1 sequence (Q13324 1-411): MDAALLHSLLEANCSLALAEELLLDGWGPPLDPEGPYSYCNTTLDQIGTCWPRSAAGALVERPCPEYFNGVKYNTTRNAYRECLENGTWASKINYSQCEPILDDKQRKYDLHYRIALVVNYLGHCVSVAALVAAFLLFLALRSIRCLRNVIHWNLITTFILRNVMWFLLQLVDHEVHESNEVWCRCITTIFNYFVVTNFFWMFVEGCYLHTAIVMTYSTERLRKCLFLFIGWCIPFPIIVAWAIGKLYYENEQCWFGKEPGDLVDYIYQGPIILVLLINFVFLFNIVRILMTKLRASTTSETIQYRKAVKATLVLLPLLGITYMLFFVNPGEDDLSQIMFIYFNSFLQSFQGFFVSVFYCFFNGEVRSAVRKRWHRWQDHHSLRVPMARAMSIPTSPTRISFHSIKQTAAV
Experimental: The binding profile of h-SCP (SEQ ID NO:1) at CRHR2 was determined in radioligand binding studies in a membrane preparation of SK-N-MC cells stably transfected with human CRHR2 using [^125I]-anti-sauvagine-30 as the radiolabel. […] The solution was then homogenized with a Polytron tissue grinder at a setting of 10 and 7×3 s (Brinkmann Instruments, Westbury, N.Y.). The homogenate was centrifuged at 4° Celsius at 800×g for 5 min with the pellet being discarded. The supernatant was re-centrifuged at 26,892×g for 25 min at 4° Celsius with the final pellet being re-suspended in assay buffer. All binding assays were conducted in 96-well Multiscreen GF/B filter plates (Millipore, Billericay, Mass., U.S.A.) that were pre-soaked in assay buffer with 0.3% PEI for 1 hour. […] The bound radioactivity was separated by filtration using a Multiscreen Resist manifold (Millipore Corp., Billerica, Mass., U.S.A). The filters were washed three times with ice-cold PBS at pH 7.5 and radioactivity retained on the filters was quantified by its liquid scintillation measured by a TopCount counter (Packard BioScience, Boston, Mass., U.S.A). All experiments were performed in triplicate. Data from individual competition curves were expressed as the percentage of specific [^125I]-anti-sauvagine-30 or)[^125I]-([…])-sauvagine binding (B) within each experiment.

human CRHR2 [2] = target: T1, human CRHR2; assay: cAMP assay in h-CRHR2 transfected SK-N-MC cells; assay type: cell-based; details: for Experimental nH / nH: Hill slope; for Experimental αmax: maximal asymptote
In short: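 SK-N-MC cells stably expressing human CRHR2 were stimulated with peptides (1 pM-10 μM) for 60 min at 37 °C with 10 μM IBMX, then lysed in 0.5 M HCl. cAMP was quantified by competitive [125I]-cAMP antibody flash-plate assay. Hill-equation fits gave A50/pA50; Log DR was taken relative to h-SCP control in the same batch.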

[3] = CRHR2, Table 11, listed as h-SRP
[4] = CRHR2, Table 11, listed as h-SCP

| Compound | CRHR2 nH (human CRHR2 [1]) | Experimental nH (human CRHR2 [2]; [3]) | Experimental αmax (human CRHR2 [2]; [3]) | competition curve / affinity states (human CRHR2 [1]; [125I]-anti-sauvagine-30 competition) | Experimental pA50 (human CRHR2 [2]; CRHR2, Table 11, 1 hr at 37° Celsius, listed as h-SCP) | Experimental nH (human CRHR2 [2]; [4]) | Experimental αmax (human CRHR2 [2]; [4]) | nH (human CRHR2 [2]; Table 12) | pA50 (human CRHR2 [2]; Table 12, amidation and N-terminal deletions, 3-5 replicate experiments) | pA50 (human CRHR2 [2]; Table 14) | nH (human CRHR2 [2]; Table 14) | EC50 (human CRHR2 [2]; text b184, read-out: concentration required for 50% maximum effect (A50)) [nM] | pA50 (human CRHR2 [2]; text b201-b202, N-terminal deletions, parent in one batch) | Experimental nH (human CRHR2 [2]; CRHR2, Table 11) | Experimental αmax (human CRHR2 [2]; CRHR2, Table 11) |
| --- | --- | --- | --- | --- | --- | --- | --- | --- | --- | --- | --- | --- | --- | --- | --- |
| HPGSRIVLSLDVPIGLLQILLEQARARAAREQATTNARILARV-NH2 [SEQ ID NO: 117, HPGSRIVLSLDVPIGLLQILLEQARAPAAREQATTNARILARV-NH2, reference compound] | 1.26 ± 0.14 | 1.08 and 1.06 and 0.99 | 113.5 and 108.7 and 98.56 | – | – | – | – | – | – | – | – | – | – | – | – |
| TKFTLSLDVPTNIMNLLFNIAKAKNLRAQAAANAHLMAQI-NH2 [SEQ ID NO: 1, TKFTLSLDVPTNIMNLLFNIAKAKNLRAQAAANAHLMAQI-NH2, reference compound] | 1.00 ± 0.04 | – | – | biphasic | 9.41 | 0.99 and 1.04 and 1.39 and 1.55 | 99.31 and 97.53 and 116.1 and 98.2 | 1.18 | 9.41 | 9.40 | 1.26 | 0.4 | 9.41±0.03 | – | – |
| CC[C@H](C)[C@H](NC(=O)[C@H](CO)NC(=O)[C@H](CC(C)C)NC(=O)[C@@H]1CCCN1C(=O)[C@@H]1CCCN1C(=O)[C@H](CC(=O)O)NC(=O)[C@@H](N)CC(=O)O)C(=O)N[C@@H](CC(=O)O)C(=O)N[C@@H](CC(C)C)C(=O)N[C@H](C(=O)N[C@@H](Cc1ccccc1)C(=O)N[C@@H](Cc1c[nH]cn1)C(=O)N[C@@H](CC(C)C)C(=O)N[C@@H](CC(C)C)C(=O)N[C@@H](CCCNC(=N)N)C(=O)N[C@H](C(=O)N[C@@H](CC(C)C)C(=O)N[C@@H](CC(C)C)C(=O)N[C@@H](CCC(=O)O)C(=O)N[C@@H](CC(C)C)C(=O)N[C@@H](C)C(=O)N[C@@H](CCCNC(=N)N)C(=O)N[C@H](C(=O)N[C@@H](CCC(N)=O)C(=O)N[C@@H](CO)C(=O)N[C@@H](CCC(N)=O)C(=O)N[C@@H](CCCNC(=N)N)C(=O)N[C@@H](CCC(=O)O)C(=O)N[C@@H](CCCNC(=N)N)C(=O)N[C@@H](C)C(=O)N[C@@H](CCC(=O)O)C(=O)N[C@@H](CCC(N)=O)C(=O)N[C@@H](CC(N)=O)C(=O)N[C@@H](CCCNC(=N)N)C(=O)N[C@H](C(=O)N[C@H](C(=O)N[C@@H](Cc1ccccc1)C(=O)N[C@@H](CC(=O)O)C(=O)N[C@@H](CO)C(=O)N[C@H](C(N)=O)C(C)C)[C@@H](C)CC)[C@@H](C)CC)[C@@H](C)O)[C@@H](C)O)[C@@H](C)O [SEQ ID NO: 114, DDPPLSIDLTFHLLRTLLELARTQSQRERAEQNRIIFDSV-NH2] | 1.19 ± 0.14 | – | – | – | – | – | – | – | – | – | – | – | – | 1.07 | 110.5 |
